# Source: patent publication US20030032771A1, “Peptide inhibitors of cellular proliferation” (priority 2001, published 2003)
# System: Drosophila early embryos (syncytial blastoderm)
# Assay: Cytological analysis of mitosis in live Drosophila melanogaster embryos after microinjection (time-lapse confocal microscopy)
# Type: in vivo
# Description: Embryo microinjections. Microinjections of 0-2 hour Drosophila embryos were carried out as described previously (Sharp et al., J. Cell Biol. 144:125-138 (1999)). Briefly, embryos were initially injected with rhodamine-conjugated bovine tubulin (purchased from Molecular Probes or made in our own laboratory) allowed to recover for 5 minutes and then injected with antibodies or with buffer alone for controls. Because, in our hands, tubulin injections prior to the cortical migration of nuclei at cycle 10 […] normally halts development, embryos were injected with antibodies during cycle 11.
# Time-lapse laser scanning confocal microscopy. All images were acquired on a Leica TCS SP confocal microscope run by the Leica TCS software. Time-series were generated using the ‘Time Series’ function contained in the control panel. Each image results from two accumulated (averaged) scans of the sample and new images were acquired every 5 seconds. Because changes in the MT arrays of early embryos occur so quickly, all of the images shown and analyzed in this study represent 1 focal plane (no z-series' were performed). This allowed for the highest temporal and spatial resolution with the least amount of bleaching and other damage resulting from multiple laser scans.
# The peptide expressed as described in Example 1 was delivered to Drosophila early embryos (synicytial blastoderm) by microinjections. Drosophila is a much studied organism; its genome has been fully sequenced and its genetics and biochemistry are well understood. In addition, it provides a convenient system for live cytological analyses of mitosis. In the early embryo (syncytial blastoderm) the nuclei form a two-dimensional sheet interconnected by cytoplasm, which proceed through mitosis meta-cynchronously. Because of this, it is possible to inject fluorescent probes like rhodamine tubulin into fly embryos that are transgenically carrying Green Fluorescent protein (GFP)-labeled chromosomes to watch chromosome move on spindle microtubules in real-time. […]
sequence,measurement,setting,value
GEKETPVQKCQRLQIEMNELLNEVAALQVDRKVADEEKQSYDAVVATVISTAR (Drosophila melanogaster) [peptide underlined in FIG. 4],formation of two daughter nuclei on mitotic spindles (chromosome separation from the metaphase plate),"embryo microinjected with peptide, still images at about 80 seconds intervals, FIG. 5 panels C-E, rhodamine tubulin, GFP-histone",no spindles upon which two daughter nuclei are formed
same,defects in spindle structure,"embryos injected with the peptide, during mitosis",no significant defects in spindle structure
same,ability of chromosomes to separate in proliferative cells,"initial studies, peptide-injected Drosophila embryos",strongly and specifically inhibits
